Values joined by “and” are separate entries in the source; they are usually repeats but may differ in a detail not shown here. Identical values can stand only once.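 Where inhibition never reached the appropriate level, the endpoint shown equals the highest concentration tested. Otherwise, values were interpolated linearly from a five-concentration, 48-hour dose response in 96-well plates. GI50 = concentration required for 50% inhibition of growth. The concentration for full growth arrest is given as TGI.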
Legend:
Assay in all cases: NCI anticancer screen, dose series, 48 h
[1] = test system: 786-0 renal
[2] = test system: HCT-116 colon
[3] = test system: HCT-15 colon
[4] = test system: HOP-92 NSCLC
[5] = test system: KM12 colon
[6] = test system: MDA-MB-435
[7] = test system: RXF 393 renal
[8] = test system: SF-295 CNS
[9] = test system: UACC-62 melanoma
[10] = test system: UO-31 renal

Row | SMILES | GI50 [1] [µM] | TGI [1] [µM] | GI50 [2] | TGI [2] | GI50 [3] | TGI [3] | GI50 [4] [µM] | TGI [4] [µM] | GI50 [5] [µM] | TGI [5] [µM] | GI50 [6] [µM] | TGI [6] [µM] | GI50 [7] | TGI [7] | GI50 [8] | TGI [8] | GI50 [9] | TGI [9] | GI50 [10] | TGI [10]
1 | CCCCCCCCCCCCCCCC[N+](C)(C)C | 0.966 | 2.43 | 0.258 µM and 1.01 µM | 1.04 µM and 2.57 µM | 0.383 µM and 1.88 µM | 1.85 µM and 10.1 µM | 0.0918 | 0.353 | 1.36 | 2.79 | 0.241 | 0.761 | 0.0963 µM and 0.235 µM | 0.244 µM and 0.83 µM | 0.305 µM and 0.716 µM | 1.36 µM and 2.38 µM | 0.258 µM and 1.43 µM | 1.16 µM and 3.38 µM | 0.552 µM and 2.18 µM | 2.27 µM and 10.6 µM
2 | CN1CCN(c2ccc3nc(-c4ccc5nc(-c6ccc(C(F)(F)F)cc6)[nH]c5c4)[nH]c3c2)CC1 | 3.3 | 12.7 | 1.28 µM | 2.6 µM | 7.48 µM | 24.5 µM | 2.49 | 14.7 | 1.74 | 3.27 | 1.66 | 3.1 | 1.53 µM | 3.12 µM | 2.44 µM | 9.51 µM | 1.58 µM | 3.05 µM | 12.5 µM | 28 µM
3 | S=C1SC2(CCCCCC2)NC2=C1CCCCC2 | – | > 100 | – | > 100 µM | – | > 100 µM | – | 67.3 | – | > 100 | – | > 100 | – | > 100 µM | – | 99 µM | – | > 100 µM | – | 60.1 µM
4 | O=C(O)C1(C(=O)O)CCN(S(=O)(=O)c2ccccc2)CC1 | – | > 100 | – | > 100 µM | – | > 100 µM | – | > 100 | – | > 100 | – | > 100 | – | > 100 µM | – | > 100 µM | – | > 100 µM | – | > 100 µM
5 | COc1cc2c3c(n(CCCn4cccn4)c(=O)c2cc1OC)-c1cc2c(cc1C3=O)OCO2 | 0.429 | 2.76 | 1.47 µM | 15.9 µM | 14.7 µM | > 100 µM | 1.34 | 18.6 | 5.11 | > 54.5 | 6.23 | 39.2 | 5.76 µM | 27.7 µM | 0.581 µM | 32 µM | 0.359 µM | 1.78 µM | 0.962 µM | 18.1 µM
6 | COc1ccccc1NC(=O)N/C(N)=N/c1nc2ccccc2s1 | 0.288 | > 100 | 0.0497 µM | > 100 µM | 0.0526 µM | > 100 µM | > 23.4 | > 100 | 0.0505 | > 100 | 0.0211 | 0.0692 | 0.0402 µM | 0.731 µM | 0.0418 µM | – | 0.0647 µM | > 100 µM | 0.389 µM | > 100 µM
7 | N#C/C(=C/c1cccs1)c1cccs1 | > 100 | > 100 | > 100 µM | > 100 µM | > 100 µM | > 100 µM | 27.8 | > 100 | > 100 | > 100 | > 100 | > 100 | 38 µM | > 100 µM | > 100 µM | > 100 µM | > 100 µM | > 100 µM | > 100 µM | > 100 µM
8 | COc1cccc(NC(=O)c2ccc(C(F)(F)F)nc2Nc2ccc(Cl)cc2C)c1 | 14.7 | 31.4 | 10.9 µM | 22.9 µM | 11 µM | 22.9 µM | 4.76 | 21.4 | – | – | 12.1 | 27.2 | 1.17 µM | 15.4 µM | 12.4 µM | 28.6 µM | 14.2 µM | 27.2 µM | 1.45 µM | 8.29 µM
9 | CCCN(CCC)c1ccc(C=O)c(OC)c1 | 29.4 | > 100 | 25.5 µM | > 100 µM | 24.1 µM | > 100 µM | 13.3 | 86.7 | 23.7 | 83.8 | 20 | 78.9 | 26.9 µM | > 100 µM | 15.8 µM | 64.5 µM | 16.3 µM | 55.4 µM | 16.5 µM | > 100 µM
10 | CN([N-]C(=O)CC(=O)[N-]N(C)C(=S)c1ccccc1)C(=S)c1ccccc1.[Cu+2] | 0.0503 | 0.116 | < 0.01 µM | 0.014 µM | 0.0228 µM | 0.13 µM | 0.0333 | 0.098 | 0.0353 | 0.152 | 0.0437 | 0.171 | 0.0266 µM | 0.0729 µM | 0.0635 µM | 0.225 µM | 0.0332 µM | 0.149 µM | 0.0666 µM | 0.231 µM
11 | Cc1cc(C)c(S(=O)(=O)Oc2ccccc2[N+](=O)[O-])c(C)c1 | 5.58 | > 100 | 1.44 µM | > 100 µM | 1.37 µM | > 100 µM | 1.98 | 25.4 | 0.803 | > 100 | 0.239 | 0.879 | 2.48 µM | 7.83 µM | 1.67 µM | > 24.3 µM | 2.46 µM | > 100 µM | 3.27 µM | > 100 µM
12 | CCc1nc2cc(/C=C/C(=O)NO)c(F)cc2c(=O)n1CCc1ccccc1 | 1.7 | 4.49 | 0.313 µM | 2.91 µM | 0.461 µM | 16.5 µM | 2.51 | 8.94 | 2.14 | 15.5 | 1.2 | 10.2 | 0.99 µM | 3.56 µM | 1.89 µM | 4.35 µM | 0.597 µM | 3.38 µM | 0.735 µM | 2.73 µM
13 | C=C(C)[C@@H]1CC[C@]2(C)[C@H](CC=C3[C@@H]4CC(C)(C)CC[C@]4(C(=O)OC)CC[C@]32C)[C@@]1(C)CC/C(N)=N/O | 1.76 | 3.19 | 1.61 µM | 3.05 µM | 2.05 µM | 5.6 µM | 1.42 | 3.2 | 1.68 | 3.6 | 1.78 | 3.65 | 1.8 µM | 3.67 µM | 1.79 µM | 4.01 µM | 1.52 µM | 3.11 µM | 1.51 µM | 2.94 µM
